Key:
Plasmopara viticola = assay: Activity against Peronospora of grapevines caused by Plasmopara viticola, protective use; assay type: in vivo; details: 250 ppm spray, grapevine cultivar Müller-Thurgau, visual rating of leaf undersides, untreated 90%
Experimental: (§1) For use examples 1 and 2, the active compounds were formulated as a stock solution 15 with 0.25% by weight of active compound in acetone or dimethyl sulfoxide (DMSO). 1% by weight of the emulsifier Uniperol® EL (wetting agent having emulsifying and dispersant action based on ethoxylated alkylphenols) was added to this solution, and the mixture was diluted with water to the desired concentration.
Activity against Peronospora of Grapevines caused by Plasmopara viticola, Protective Use
Leaves of potted grapevines of the cultivar “Müller-Thurgau” were sprayed to runoff point with an aqueous suspension having the concentration of active compound stated below. The next day, the undersides of the leaves were inoculated with an aqueous zoospore suspension of Plasmopara viticola. The grapevines were then initially placed in a water-vapor-saturated chamber at 24° C. for 48 hours and then in a greenhouse at 20-30° C. for 5 days. After this period of time, the plants were again placed in a humid chamber for 16 hours to promote sporangiophore eruption. The extent of the development of the infection on the undersides of the leaves was then determined visually.

Alternaria solani = assay: Activity against early blight of tomato caused by Alternaria solani, protective use; assay type: in vivo; details: 250 ppm spray, tomato cultivar Large Fruited St. Pierre, visual rating after 5 days, untreated 80%
Experimental: as §1
Activity Against Early Blight of Tomato Caused by Alternaria solani, Protective Use
Leaves of potted plants of the tomato cultivar “Large Fruited St. Pierre” were sprayed to runoff point with an aqueous suspension having the concentration of active compound stated below. The next day, the leaves were infected with an aqueous spore suspension of Alternaria solani in a 2% biomalt solution having a density of 0.17×10^6 spores/ml. The plants were then placed in a water-vapor-saturated chamber at 20-22° C. After 5 days, the blight on the untreated but infected control plants had developed to such an extent that the infection could be determined visually in %.

[1] = tested on: Erysiphe [syn. Blumeria] graminis forma specialis tritici; assay: Activity against mildew of wheat caused by Erysiphe [syn. Blumeria] graminis forma specialis tritici, protective use; assay type: in vivo; details: 250 ppm spray, wheat seedlings cultivar Newton, visual rating after 7 days, % of entire leaf area, untreated 90%
Experimental: Activity Against Mildew of Wheat Caused by Erysiphe [syn. Blumeria] graminis form a Specialis tritici, Protective Use
Leaves of wheat seedlings, grown in pots, of the cultivar “Newton” were sprayed to runoff point with an aqueous suspension having the concentration of active compound stated below. The suspension or emulsion was prepared from a stock solution comprising 5% of active compound, 94% of cyclohexanone and 1% of emulsifier (Tween 20) by dilution with water. 3-5 hours after the spray coating had dried on, the […] of wheat (Erysiphe [syn. Blumeria] graminis form a specialis. tritici). The test plants were then placed in a greenhouse at 20-24° C. and 60-90% relative atmospheric humidity. After 7 days, the extent of the mildew development was determined visually in % infection of the entire leaf area.

SMILES | Infection [%] at 250 ppm (Plasmopara viticola) [%] | Infection [%] at 250 ppm (Alternaria solani) [%] | Infection [%] at 250 ppm [1] [%] | melting point [°C]
CCCCc1c(-c2ccc(C)cc2F)c(C)nn2cnnc12 [Example 5] | 0 | – | – | –
Cc1nc2c(C#N)ncn2c(N[C@H](C)C(C)C)c1-c1c(F)cc(F)cc1F [Example 36] | – | 7 | – | –
CC1CCN(c2c(-c3c(F)cccc3Cl)c(Cl)nc3nnnn23)CC1 [Example 23, 5-Chloro-6-(2-chloro-6-fluorophenyl)-7-(4-methylpiperidin-1-yl)-tetrazolo[1,5-a]pyrimidine] | – | – | 15 | –
CCC(C)C(C)c1c(-c2ccc(C)cc2F)c(C)nn2cnnc12 (single isomer, unassigned) [Example 22] | – | – | 7 | –
Cc1cc(F)ccc1-c1c(C)nn2cnnc2c1CC(C)C [Example 2] | 0 | 15 | – | –
CCCC(C)c1c(-c2ccc(F)cc2F)c(C)nn2cnnc12 (single isomer, unassigned) [Example 18] | 10 | – | 7 | –
CCCC(C)c1c(-c2ccc(C)cc2C)c(C)nn2cnnc12 (racemic) [Example 14] | – | – | 20 | –
CCCCc1c(-c2ccc(F)cc2C)c(C)nn2cnnc12 [Example 3] | 0 | 25 | – | –
Cc1nn2cnnc2c(CCC(C)(C)C)c1-c1ccc(F)cc1F [Example 11] | 0 | 20 | – | –
Cc1ccc(-c2c(C)nn3cnnc3c2CCC(C)(C)C)c(F)c1 [Example 12] | 3 | 3 | – | –
Cc1nn2cnnc2c(C2CCCCC2)c1-c1ccc(F)cc1F [Example 8] | 0 | 0 | – | –
Cc1nn2ncnc2c(CC(C)C)c1-c1ccc(F)cc1F [Example 38, 7-(2,4-Difluorophenyl)-8-isobutyl-6-methyl-[1,2,4]triazolo[1,5-b]pyridazine] | – | – | – | 103 to 105
CCC(C)C(C)c1c(-c2ccc(C)cc2F)c(C)nn2cnnc12 (single isomer, unassigned) [Example 20] | – | – | 5 | –
CCC(C)C(C)c1c(-c2ccc(F)cc2C)c(C)nn2cnnc12 (mixture of isomers) [Example 16] | – | 20 | – | –
Cc1ccc(-c2c(C)nn3cnnc3c2CCC(C)(C)C)c(C)c1 [Example 15] | 3 | – | 20 | –
Cc1nn2cnnc2c(CC(C)C)c1-c1ccc(F)cc1F [Example 6] | 0 | – | – | –
Cc1ccc(-c2c(C)nn3cnnc3c2CC(C)C)c(F)c1 [Example 7] | – | 20 | – | –
Cc1nn2cnnc2c(CC(C)C)c1-c1ccccc1 [Example 1, 7-Phenyl-8-isobutyl-6-methyl-[1,2,4]triazolo[4,3-b]pyridazine] | 20 | 10 | – | –
Cc1cc(F)ccc1-c1c(C)nn2cnnc2c1C1CCCCC1 [Example 10] | 0 | – | – | –
CCCC(C)c1c(-c2ccc(C)cc2F)c(C)nn2cnnc12 (single isomer, unassigned) [Example 19] | – | – | 20 | –
CCCC(C)c1c(-c2ccc(F)cc2F)c(C)nn2cnnc12 (single isomer, unassigned) [Example 21] | 3 | – | 3 | –
CCCC(C)c1c(-c2ccc(F)cc2C)c(C)nn2cnnc12 (racemic) [Example 13] | – | 10 | – | –
Cc1ccc(-c2c(C)nn3cnnc3c2C2CCCCC2)c(C)c1 [Example 9] | 20 | – | – | –
CCCCc1c(-c2ccc(F)cc2F)c(C)nn2cnnc12 [Example 4] | 0 | 10 | – | –

— US20060199801A1, “Heterobicyclic compounds used as fungicides” (priority 2003, published 2006)
